Measurements as given in patent US20250388605A1, “HETEROBIFUNCTIONAL COMPOUNDS AND METHODS OF TREATING DISEASE” (Halda Therapeutics OpCo, Inc., priority 2022, published 2025).
pKd: −log10 of the molar value.

Assays:
VCaP cells = test: Cellular growth inhibition assay for VCaP cells, CellTiter-Glo; format: cell-based, human; settings: 72 hours
In short: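 GI50 values come from four-parameter curve fits of luminescence data normalized to a zero baseline. Compound, in medium with 0.5% DMSO, was added one day after plating and left for 72 h before CellTiter-Glo 2.0 addition.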

[1] = test system: T-Rex 293 cell line SC3 cells lacking increased expression of androgen receptor protein; test: Cellular growth inhibition, T-Rex 293 SC3 cells without doxycycline (no increased androgen receptor expression), CellTiter-Glo; format: cell-based; settings: T-Rex 293 SC3 cells not exposed to doxycycline (no increased androgen receptor expression), 72 hours
In short: (§1)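 Growth inhibition is measured in an inducible AR-expressing T-Rex 293 clone, SC3, cultured with or without 10 ng/mL doxycycline in hormone-depleted medium. Test compounds are applied for 72 hours. GI50 values derive from CellTiter-Glo 2.0 signal fitted by four-parameter regression.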

[2] = test system: T-Rex 293 cell line SC3 cells having increased expression of androgen receptor protein due to exposure to doxycycline; test: Cellular growth inhibition, T-Rex 293 SC3 cells with doxycycline (increased androgen receptor expression), CellTiter-Glo; format: cell-based; settings: T-Rex 293 SC3 cells with 10 ng/mL doxycycline (increased androgen receptor expression), 72 hours, CellTiter-Glo 2.0
In short: as §1

BRD4-BD1 = molecular target: T1, BRD4-BD1 (Homo sapiens, UniProt O60885); test: Binding affinity to BRD4-BD1 (bromoKdELECT assay); settings: 11-point 3-fold dilution series
T1 construct: made in house; host or cells: T7 phage grown in an E. coli host derived from the BL21 strain
Description: Compounds were tested using a bromoKdELECT assay. T7 phage strains displaying bromodomains were grown in parallel in 24-well blocks in an E. coli host derived from the BL21 strain. E. coli were grown to log-phase and infected with T7 phage from a frozen stock (multiplicity of infection=0.4) and incubated with shaking at 32° C. until lysis (90-150 minutes). The lysates were centrifuged (5,000×g) and filtered ([…]) to remove cell debris. Streptavidin-coated magnetic beads were treated with biotinylated small molecule or acetylated peptide ligands for 30 minutes at room temperature to generate affinity resins for bromodomain assays. The liganded beads were blocked with excess biotin and washed with blocking buffer (SeaBlock (Pierce), 1% BSA, 0.05% Tween 20, 1 mM DTT) to remove unbound ligand and to reduce nonspecific phage binding. Binding reactions were assembled by combining bromodomains, liganded affinity beads, and test compounds in 1× binding buffer (17% SeaBlock, 0.33×PBS, 0.04% Tween 20, 0.02% BSA, 0.004% Sodium azide, 7.4 mM DTT). Test compounds were prepared as 1000× stocks in 100% DMSO. Kds were determined using an 11-point 3-fold compound dilution series with one DMSO control point. All compounds for Kd measurements are distributed by acoustic transfer (non-contact dispensing) in 100% DMSO. The compounds were then diluted directly into the assays such that the final concentration of DMSO was 0.09%. All reactions performed in polypropylene 384-well plates. Each was a final volume of 0.02 ml. The assay plates were incubated at room temperature with shaking for 1 hour and the affinity beads were washed with wash buffer (1×PBS, 0.05% Tween 20). The beads were then resuspended in elution buffer (1×PBS, 0.05% Tween […] non-biotinylated affinity ligand) and incubated at room temperature with shaking for 30 minutes. The bromodomain concentration in the eluates was measured by qPCR.

Row | Structure (SMILES) | GI50 (VCaP cells; Homo sapiens) | GI50 [1] | GI50 [2] | pKd (BRD4-BD1) | GI50 (VCaP cells)
1 | Cn1cc(-c2ccccc2Oc2cccc(OCCOC3CCN(c4ncc(C(=O)N[C@H]5C(C)(C)[C@H](Oc6ccc(C#N)c(Cl)c6)C5(C)C)cn4)CC3)c2)c2ccn(C)c2c1=O [Compound I-137] | > 3000 nM | < 500 nM | < 500 nM | < 5.60 | 
2 | CC(C)c1ccc(Oc2cccc(OCCN3CCN(c4ncc(C(=O)NC5C(C)(C)C(Oc6ccc(C#N)c(Cl)c6)C5(C)C)cn4)CC3)c2)c(-c2cn(C)c(=O)c3[nH]ccc23)c1 (centres unmarked) [Compound I-107, N-[3-(3-chloro-4-cyano-phenoxy)-2,2,4,4-tetramethyl-cyclobutyl]-2-[4-[2-[3-[4-isopropyl-2-(6-methyl-7-oxo-1H-pyrrolo[2,3-c]pyridin-4-yl)phenoxy]phenoxy]ethyl]piperazin-1-yl]pyrimidine-5-carboxamide] | > 3000 nM | > 3000 nM | < 500 nM | 6.30 to 7.30 | 
3 | Cn1cc(-c2cc(C(C)(C)O)ccc2Oc2cccc(CCOC3CCN(c4ncc(C(=O)N[C@H]5C(C)(C)[C@H](Oc6ccc(C#N)c(Cl)c6)C5(C)C)cn4)CC3)c2)c2cc[nH]c2c1=O [Compound I-193] |  | < 500 nM | < 500 nM | < 5.60 | < 500 nM
4 | CCS(=O)(=O)Nc1ccc(Oc2cccc(N3CC(N4CCN(c5ncc(C(=O)N[C@H]6C(C)(C)[C@H](Oc7ccc(C#N)c(Cl)c7)C6(C)C)cn5)CC4)C3)c2)c(-c2cn(C)c(=O)c3[nH]ccc23)c1 [Compound I-75] | < 500 nM | < 500 nM | < 500 nM | 6.30 to 7.30 | 
5 | CCS(=O)(=O)c1ccc(OC(CCCCN2CCN(c3ncc(C(=O)NC4C(C)(C)C(Oc5ccc(C#N)c(Cl)c5)C4(C)C)cn3)CC2)C2CC2)c(-c2cn(C)c(=O)c3[nH]ccc23)c1 (centres unmarked) [Compound I-223, N-[3-(3-chloro-4-cyano-phenoxy)-2,2,4,4-tetramethyl-cyclobutyl]-2-[4-[5-cyclopropyl-5-[4-ethylsulfonyl-2-(6-methyl-7-oxo-1H-pyrrolo[2,3-c]pyridin-4-yl)phenoxy]pentyl]piperazin-1-yl]pyrimidine-5-carboxamide] | < 500 nM | < 500 nM | < 500 nM | > 7.30 | 
6 | CCS(=O)(=O)Nc1ccc(Oc2cccc(NCCOC3CCN(c4ncc(C(=O)N[C@H]5C(C)(C)[C@H](Oc6ccc(C#N)c(Cl)c6)C5(C)C)cn4)CC3)c2)c(-c2cn(C)c(=O)c3[nH]ccc23)c1 [Compound I-84] | < 500 nM | < 500 nM | < 500 nM | > 7.30 | 
7 | CN(c1ccc(Oc2cccc(N3CC(N4CCN(c5ncc(C(=O)N[C@H]6C(C)(C)[C@H](Oc7ccc(C#N)c(Cl)c7)C6(C)C)cn5)CC4)C3)c2)c(-c2cn(C)c(=O)c3[nH]ccc23)c1)S(=O)(=O)C1CC1 [Compound I-88, N-((1r, 3r)-3-(3-chloro-4-cyanophenoxy)-2,2,4,4-tetramethylcyclobutyl)-2-(4-(1-(3-(2-(6-methyl-7-oxo-6,7-dihydro-1H-pyrrolo[2,3-c]pyridin-4-yl)-4-(N-methylcyclopropanesulfonamido)phenoxy)phenyl)azetidin-3-yl)piperazin-1-yl)pyrimidine-5-carboxamide] | < 500 nM | > 3000 nM | < 500 nM | 5.60 to 6.30 | 
8 | Cn1cc(-c2cc(C(C)(C)O)ccc2Oc2cccc(OCCN3CCN(c4ncc(C(=O)N[C@H]5C(C)(C)[C@H](Oc6ccc(C#N)c(Cl)c6)C5(C)C)cn4)CC3)c2F)c2cc[nH]c2c1=O [Compound I-99] | < 500 nM | < 500 nM | < 500 nM | 5.60 to 6.30 | 
9 | CCS(=O)(=O)Nc1ccc(Oc2cccc(OCCOCCOCCOC3CCN(c4ncc(C(=O)N[C@H]5C(C)(C)[C@H](Oc6ccc(C#N)c(Cl)c6)C5(C)C)cn4)CC3)c2)c(-c2cn(C)c(=O)c3[nH]ccc23)c1 [Compound I-7] | < 500 nM | < 500 nM | < 500 nM | 5.60 to 6.30 | 
10 | CN(c1ccc(Oc2ccc(C(C)(C)O)cc2-c2cn(C)c(=O)c3[nH]ccc23)cc1)C1CCN(c2ncc(C(=O)N[C@H]3C(C)(C)[C@H](Oc4ccc(C#N)c(Cl)c4)C3(C)C)cn2)CC1 [Compound I-197] | < 500 nM | < 500 nM | < 500 nM | 6.30 to 7.30 | 
11 | CCS(=O)(=O)Nc1ccc(Oc2cccc(OCCOCCOCCOCCOCCN(C)c3ncc(C(=O)N[C@H]4C(C)(C)[C@H](Oc5ccc(C#N)c(Cl)c5)C4(C)C)cn3)c2)c(-c2cn(C)c(=O)c3[nH]ccc23)c1 [Compound I-3] | < 500 nM | > 3000 nM | < 500 nM | > 7.30 | 
12 | CN(c1ccc(Oc2cccc(N3CC(N4CCN(c5ncc(C(=O)N[C@H]6C(C)(C)[C@H](Oc7ccc(C#N)c(Cl)c7)C6(C)C)cn5)CC4)C3)c2F)c(-c2cn(C)c(=O)c3[nH]ccc23)c1)S(=O)(=O)C1CC1 [Compound I-91] | < 500 nM | > 3000 nM | < 500 nM | 6.30 to 7.30 | 
13 | Cn1cc(-c2cc(C(C)(C)O)ccc2Oc2ccc(N3CC(CN4CC5CC4CN5c4ncc(C(=O)N[C@H]5C(C)(C)[C@H](Oc6ccc(C#N)c(Cl)c6)C5(C)C)cn4)C3)cc2)c2cc[nH]c2c1=O (some centres unmarked) [Compound I-228] | < 500 nM | < 500 nM | < 500 nM | > 7.30 | 
14 | Cn1cc(-c2ccccc2Oc2cccc(N3CC(N4CCN(c5ncc(C(=O)N[C@H]6C(C)(C)[C@H](Oc7ccc(C#N)c(Cl)c7)C6(C)C)cn5)CC4)C3)c2)c2cc[nH]c2c1=O [Compound I-90, N-((1r, 3r)-3-(3-chloro-4-cyanophenoxy)-2,2,4,4-tetramethylcyclobutyl)-2-(4-(1-(3-(2-(6-methyl-7-oxo-6,7-dihydro-1H-pyrrolo[2,3-c]pyridin-4-yl)phenoxy)phenyl)azetidin-3-yl)piperazin-1-yl)pyrimidine-5-carboxamide] | < 500 nM | > 3000 nM | < 500 nM | < 5.60 | 
15 | Cn1cc(-c2ccccc2Oc2cccc(N3CC(N4CCN(c5ncc(C(=O)N[C@H]6C(C)(C)[C@H](Oc7ccc(C#N)c(Cl)c7)C6(C)C)cn5)CC4)C3)c2F)c2cc[nH]c2c1=O [Compound I-94] | > 3000 nM | > 3000 nM | < 500 nM | 5.60 to 6.30 | 
16 | Cn1cc(-c2ccccc2Oc2cccc(OCCN3CCN(c4ncc(C(=O)N[C@H]5C(C)(C)[C@H](Oc6ccc(C#N)c(Cl)c6)C5(C)C)cn4)CC3)c2)c2cc[nH]c2c1=O [Compound I-98] | < 500 nM | 500 to 1500 nM | < 500 nM | < 5.60 | 
17 | Cn1cc(-c2cc(C(C)(C)O)ccc2Oc2cccc(CCCN3CCN(c4ncc(C(=O)N[C@H]5C(C)(C)[C@H](Oc6ccc(C#N)c(Cl)c6)C5(C)C)cn4)CC3)c2)c2cc[nH]c2c1=O [Compound I-110] | < 500 nM | < 500 nM | < 500 nM | 5.60 to 6.30 | 
18 | Cn1cc(-c2cc(C(C)(C)O)ccc2Oc2cccc(N3CC(N4CCN(c5ncc(C(=O)N[C@H]6C(C)(C)[C@H](Oc7ccc(C#N)c(Cl)c7)C6(C)C)cn5)CC4)C3)c2)c2cc[nH]c2c1=O [Compound I-105] | < 500 nM | < 500 nM | < 500 nM | 5.60 to 6.30 | 
19 | CCS(=O)(=O)Nc1ccc(Oc2ccc(OCC3CCN(c4ncc(C(=O)N[C@H]5C(C)(C)[C@H](Oc6ccc(C#N)c(Cl)c6)C5(C)C)cn4)CC3)cc2)c(-c2cn(C)c(=O)c3[nH]ccc23)c1 [Compound I-138] |  | < 500 nM | < 500 nM | < 5.60 | < 500 nM
20 | Cn1cc(-c2cc(C(C)(C)O)ccc2Oc2cccc(N3CC(N4CCN(c5ncc(C(=O)N[C@H]6C(C)(C)[C@H](Oc7ccc(C#N)c(Cl)c7)C6(C)C)cn5)CC4)C3)c2F)c2cc[nH]c2c1=O [Compound I-92, N-((1r, 3r)-3-(3-chloro-4-cyanophenoxy)-2,2,4,4-tetramethylcyclobutyl)-2-(4-(1-(2-fluoro-3-(4-(2-hydroxypropan-2-yl)-2-(6-methyl-7-oxo-6,7-dihydro-1H-pyrrolo[2,3-c]pyridin-4-yl)phenoxy)phenyl)azetidin-3-yl)piperazin-1-yl)pyrimidine-5-carboxamide] | < 500 nM | < 500 nM | < 500 nM | 6.30 to 7.30 | 
